Reference: patent publication US20250382332A1, “NOVEL ALPHA-FACTOR BASED PEPTIDES WITH ANTIFUNGAL ACTIVITY” (INVAIO SCIENCES, INC., priority 2024, published 2025)
Peptide text beside a SMILES is read from it.

Test system: Botrytis cinerea (B05.10)
Assay: Resazurin antifungal assay of 180 alpha-factor peptide variants towards Botrytis (Example 2)
Assay type: cell-based
Details: % inhibition of fungal growth, Botrytis conidia, resazurin; for Inhibition at 50 μM: peptide 50 μM; for Inhibition at 100 μM: peptide 100 μM
Method in brief: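 Resazurin viability read-out (570/620 nm fluorescence) after a 24 h, 20° C incubation of B05.10 conidia, 5000 per well, with peptide at final 10-100 μM. Growth inhibition (%) was derived by subtracting conidia-only fluorescence; four replicates per treatment.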

| Structure (SMILES) | Inhibition at 50 μM [%] | Inhibition at 100 μM [%] |
| --- | --- | --- |
| CC[C@H](C)[C@H](NC(=O)[C@H](CC(C)C)NC(=O)[C@H](CCC(N)=O)NC(=O)CNC(=O)[C@H](Cc1c[nH]c2ccccc12)NC(=O)CNC(=O)[C@@H](N)CCCCN)C(=O)N1CCC[C@H]1C(=O)NCC(=O)N[C@@H](CCC(=O)O)C(=O)N1CCC[C@H]1C(=O)N[C@@H](CCSC)C(=O)N[C@@H](Cc1ccc(O)cc1)C(=O)O [compound 133] (H-KGWGQLIPGEPMY-OH; N-terminus and C-terminus assumed) | <90 | <90 |
| CSCC[C@H](NC(=O)[C@@H]1CCCN1C(=O)[C@H](CCC(N)=O)NC(=O)CNC(=O)[C@@H]1CCCN1C(=O)[C@H](CCCCN)NC(=O)[C@H](CC(C)C)NC(=O)[C@H](CCCCN)NC(=O)[C@H](CC(C)C)NC(=O)[C@H](CC(=O)O)NC(=O)CNC(=O)[C@@H](N)Cc1c[nH]c2ccccc12)C(=O)N[C@@H](Cc1ccc(O)cc1)C(=O)O [compound 134] (H-WGDLKLKPGQPMY-OH; N-terminus and C-terminus assumed) | <90 | <90 |
| CSCC[C@H](NC(=O)[C@@H]1CCCN1C(=O)[C@H](CCC(=O)O)NC(=O)CNC(=O)[C@H](CCCNC(=N)N)NC(=O)[C@H](CCC(N)=O)NC(=O)[C@H](CC(C)C)NC(=O)[C@H](CCC(N)=O)NC(=O)CNC(=O)[C@H](Cc1c[nH]c2ccccc12)NC(=O)[C@H](Cc1c[nH]cn1)NC(=O)[C@@H](N)Cc1c[nH]c2ccccc12)C(=O)N[C@@H](Cc1ccc(O)cc1)C(=O)O [compound 135] (H-WHWGQLQRGEPMY-OH; N-terminus and C-terminus assumed) | <90 | <90 |
| CSCC[C@H](NC(=O)[C@@H]1CCCN1C(=O)[C@H](CCC(=O)O)NC(=O)CNC(=O)[C@@H]1CCCN1C(=O)[C@H](CCCCN)NC(=O)[C@H](CC(C)C)NC(=O)[C@H](CCCCN)NC(=O)[C@H](CC(C)C)NC(=O)[C@H](Cc1c[nH]c2ccccc12)NC(=O)[C@H](Cc1c[nH]cn1)NC(=O)[C@@H]1CCCN1)C(=O)N[C@@H](Cc1ccc(O)cc1)C(=O)O [compound 136] (H-PHWLKLKPGEPMY-OH; N-terminus and C-terminus assumed) | <90 | <90 |
| CSCC[C@H](NC(=O)[C@H](Cc1c[nH]cn1)NC(=O)[C@@H](N)Cc1c[nH]c2ccccc12)C(=O)NCC(=O)N[C@@H](CCC(N)=O)C(=O)N[C@@H](CC(C)C)C(=O)N[C@@H](CCCCN)C(=O)N1CCC[C@H]1C(=O)NCC(=O)N[C@@H](CCC(=O)O)C(=O)N1CCC[C@H]1C(=O)N[C@@H](CCSC)C(=O)N[C@@H](Cc1ccc(O)cc1)C(=O)O [compound 137] (H-WHMGQLKPGEPMY-OH; N-terminus and C-terminus assumed) | <90 | <90 |
| CSCC[C@H](NC(=O)[C@H](CCC(N)=O)NC(=O)[C@@H](N)Cc1c[nH]c2ccccc12)C(=O)N[C@@H](CC(C)C)C(=O)N[C@@H](CCCCN)C(=O)N[C@@H](CC(C)C)C(=O)N[C@@H](CCCCN)C(=O)N[C@@H](Cc1ccc(O)cc1)C(=O)NCC(=O)N[C@@H](CCC(N)=O)C(=O)N1CCC[C@H]1C(=O)N[C@@H](CCSC)C(=O)N[C@@H](Cc1ccc(O)cc1)C(=O)O [compound 138] (H-WQMLKLKYGQPMY-OH; N-terminus and C-terminus assumed) | <90 | <90 |
| CC[C@H](C)[C@H](NC(=O)[C@H](CCC(=O)O)NC(=O)CNC(=O)[C@H](Cc1c[nH]c2ccccc12)NC(=O)[C@H](Cc1c[nH]cn1)NC(=O)[C@@H]1CCCN1)C(=O)N[C@@H](CCCCN)C(=O)N1CCC[C@H]1C(=O)NCC(=O)N[C@@H](CCC(N)=O)C(=O)N[C@@H](CO)C(=O)N[C@@H](CCSC)C(=O)N[C@@H](Cc1ccc(O)cc1)C(=O)O [compound 139] (H-PHWGEIKPGQSMY-OH; N-terminus and C-terminus assumed) | <90 | <90 |
